# According to publication PMC10052652 (Molecules, 2023):
# Where two headings read alike, the source gives them in different places.
# Assays:
# [1] = target: T1, superoxide dismutase (SOD) (Homo sapiens, UniProt P00441); assay type: biochemical; conditions: at 100 µM
# [2] = target: T2, acetylcholinesterase (AChE) (Homo sapiens, UniProt P22303); assay type: biochemical; conditions: at 100 µM
# [3] = target: T3, α-amylase (Homo sapiens, UniProt P04746); assay: Anti-α-amylase activity (starch/DNS); conditions: for Anti α-Amylase %: at 100 µM
# T3 sequence (P04746 16-511): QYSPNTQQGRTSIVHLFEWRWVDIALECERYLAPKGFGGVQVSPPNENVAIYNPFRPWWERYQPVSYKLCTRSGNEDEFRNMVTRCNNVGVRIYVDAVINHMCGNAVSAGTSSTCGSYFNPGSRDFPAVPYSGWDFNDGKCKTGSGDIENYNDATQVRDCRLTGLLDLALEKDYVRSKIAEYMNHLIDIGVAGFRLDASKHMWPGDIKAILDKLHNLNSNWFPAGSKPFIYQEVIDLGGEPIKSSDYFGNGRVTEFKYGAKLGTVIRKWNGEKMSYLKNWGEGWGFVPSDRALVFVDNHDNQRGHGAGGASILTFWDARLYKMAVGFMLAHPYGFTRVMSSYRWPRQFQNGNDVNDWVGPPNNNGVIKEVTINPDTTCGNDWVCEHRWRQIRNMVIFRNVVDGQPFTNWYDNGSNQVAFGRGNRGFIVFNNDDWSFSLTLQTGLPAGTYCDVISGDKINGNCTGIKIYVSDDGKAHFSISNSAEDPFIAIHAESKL
# Description: The α-amylase inhibitory activity (%) value was defined as the percentage decrease in the maltose production rate over the control. […] After 15 min, this mixture was removed from the water bath and diluted with 900 µL of distilled water. The anti-α-amylase activity was determined by measuring the absorbance at 540 nm. Blank incubations were determined as the absorbance produced by samples where the enzyme was replaced with a buffer solution. […] The IC50 values were calculated from the mean values of the percentage of α--amylase inhibition data, determined in triplicate.
# [4] = tested on: SKOV-3 cells; assay: Cytotoxic activity, MTT assay, SKOV-3; assay type: cell-based, human
# [5] = target: T4, xanthine oxidase (XOD) (Homo sapiens, UniProt P47989); assay: biochemical; conditions: read-out: Anti XOD IC50
# Description: Anti-xanthine oxidase activity was assayed spectrophotometrically under aerobic conditions. First, 50 µL (50 µg/mL) of samples were added to 60 µL of phosphate buffer (pH 7.5) and 30 µL of xanthine oxidase enzyme solution (0.01 units/mL in phosphate buffer; pH 7.5). After pre-incubation at 25 °C for 15 min, the reaction was initiated by the addition of 60 µL of xanthine substrate solution (prepared in the same buffer). The assay mixture was incubated at 25 °C for 5 min. […] The assay was performed in triplicate. […] Tests were carried out in triplicate.
# [6] = tested on: MCF7 cells; assay: Cytotoxic activity, MTT assay, MCF7; assay type: cell-based, human
# Description: Optical density was measured at 540 nm. All tests were established in triplicate.
# [7] = target: T2, acetylcholinesterase (AChE); assay: biochemical
# Description: The enzymatic activity was assessed via a modified colorimetric Ellman′s method. First, 50 µL of Tris-HCl buffer (pH 8), 25µL of a buffer solution of the sample (50 µg/mL), and 25 µL of an acetylcholinesterase (AChE) enzyme solution containing 2.8 U/mL were mixed. A reaction was then initiated via the addition of 125 µL of 3 mM […]. After incubation for 15 min at 25 °C, 25 µL of a solution of iodide acetylthiocholine15 mM was added to a 96-well microplate. […] Inhibition (%) was calculated in the following way: Inhibition (%) = [(A control − A sample)/A control] × 100, where (A sample) is the absorbance of the molecule containing the reaction and (A control) is the absorbance of the reaction control. Tests were carried out in triplicate.
# [8] = DPPH radical scavenging assay
# Description: DPPH• (1-1-diphenyl 2-picryl hydrazyl) assay
# This method is based on the spectrophotometric assay using the stable radical, DPPH•, as a reagent. First, 20 µL of each sample (4 mg/mL) was mixed with 180 µL of 0.1 mM DPPH• in methanol, in plates, after an incubation of 25 min in the dark. Absorbance was measured at 517 nm. Ascorbic acid was used as the reference compound. The radical-scavenging activities of molecules, expressed as a percentage inhibition of DPPH•, were calculated according to the following formula: Inhibition (%) = [(A control − A sample)/A control] × 100 where A is the absorbance determined at 517 nm. The absorbance of the solvent and DPPH• radical without the molecule was measured as the control.
# [9] = target: T1, superoxide dismutase (SOD); assay: biochemical; conditions: read-out: Anti SOD IC50
# Description: Pyrogallol auto-oxidation due to oxygen in the air can be inhibited by an enzyme that is naturally present in the body: superoxide dismutase (SOD). Furthermore, variations in the pyrogallol auto-oxidation rate in the presence of SOD were evaluated. Tests were carried out in triplicate. The objective was to find an inhibitor of the auto-oxidation of pyrogallol in the presence of a SOD enzyme solution. Samples were tested at a concentration of 50 µg/mL, followed by incubation for 4 min at 25 °C. […] The self-oxidation of pyrogallol was evaluated in the absence of the enzyme. For this, 30 µL of pyrogallol was added to 120 µL of tris buffer (in place of the SOD) (pH 8.5), then followed by the same steps of incubating a positive control (without the molecule); this was performed in the presence of 5% of DMSO to evaluate the percentage of SOD inhibition activity on the auto-oxidation of pyrogallol.
# [10] = ABTS radical cation scavenging assay; conditions: for ABTS Assay %: at 100 µM
# Description: ABTS (2,2′-azinobis-3-ethylbenzothiazoline-6-sulfonate) assay
# The radical scavenging capacity of antioxidants for the ABTS radical cation was evaluated following this method: ABTS was prepared by adding 7 mM solution of ABTS at pH 7.4 (5 mM NaH2PO4, 5 mM Na2HPO4, and 154 mM NaCl) with 2.5 mM potassium persulfate. The mixture was stored at room temperature for 16 h in the dark before use and prepared […]. Once diluted with persulfate buffer, the absorbance of the mixture yielded an absorbance value of 0.70 ± 0.05 units at 734 nm. Then, 20 µL of each tested sample was mixed with fresh ABTS solution (180 µL), then the absorbance was measured 6 min after the initial mixing. Ascorbic acid was used as a standard. The capacity of free radical scavenging was expressed as a percentage of the inhibition values. The percentage of inhibition is calculated using the same expression employed in the DPPH assay.
# [11] = tested on: HCT116 cells; assay: Cytotoxic activity, MTT assay, HCT116; assay type: cell-based, human; conditions: Homo sapiens, HCT-116, 72 h, read-out: IC50 HCT116, MTT, 72 h
# Description: (§1) The cancer cell lines used in this study were HCT116 (colorectal carcinoma), IGROV1 (ovarian cancer), OVCAR3 (ovarian cancer), and MCF7 (mammary gland/breast cancer). […] Cell lines were maintained in culture and were incubated at 37 °C in an incubator with 5% CO2 in a humidified atmosphere. All tests were established at 80% of confluence, and viability was estimated with a trypan blue exclusion assay.
# (§2) The cytotoxic activities of molecules against cancer cell lines were evaluated using an MTT assay. The MTT colorimetric assay was performed using 96-well plates. Cells were seeded in a 96-well plate, at a concentration of 10 × 10^3 cells/well for HCT116 and 12 × 10^3 cells/well for MCF7, IGROV1, and OVAR. Adherent cells were dispatched and incubated at 37 °C overnight in a 5% CO2-enriched atmosphere. […] After that, the medium was removed, and cells were treated with 50 µL of 3-(4,5-dimethylthazolk-2-yl)-2,5-diphenyl tetrazolium bromide (MTT) solution (3 mg/mL in PBS) at 37 °C for 20 to 40 min. To dissolve the […], we added 80 µL of 100% DMSO. Optical density was measured at 540 nm. All tests were established in triplicate. […]
# [12] = tested on: OVCAR-3 cells; assay: Cytotoxic activity, MTT assay, OVCAR-3; assay type: cell-based; conditions: Homo sapiens, OVCAR-3, 72 h, read-out: IC50 OVCAR-3
# Description: as §1, §2
# [13] = target: T4, xanthine oxidase (XOD); assay type: biochemical; conditions: at 100 µM
# [14] = Homo sapiens, SK-OV-3, 72 h, read-out: IC50 SKOV-3, MTT, 72 h
# [15] = read-out: IC50 SKOV-3, MTT, 72 h
# T4 sequence (P47989 whole entry, species assumed): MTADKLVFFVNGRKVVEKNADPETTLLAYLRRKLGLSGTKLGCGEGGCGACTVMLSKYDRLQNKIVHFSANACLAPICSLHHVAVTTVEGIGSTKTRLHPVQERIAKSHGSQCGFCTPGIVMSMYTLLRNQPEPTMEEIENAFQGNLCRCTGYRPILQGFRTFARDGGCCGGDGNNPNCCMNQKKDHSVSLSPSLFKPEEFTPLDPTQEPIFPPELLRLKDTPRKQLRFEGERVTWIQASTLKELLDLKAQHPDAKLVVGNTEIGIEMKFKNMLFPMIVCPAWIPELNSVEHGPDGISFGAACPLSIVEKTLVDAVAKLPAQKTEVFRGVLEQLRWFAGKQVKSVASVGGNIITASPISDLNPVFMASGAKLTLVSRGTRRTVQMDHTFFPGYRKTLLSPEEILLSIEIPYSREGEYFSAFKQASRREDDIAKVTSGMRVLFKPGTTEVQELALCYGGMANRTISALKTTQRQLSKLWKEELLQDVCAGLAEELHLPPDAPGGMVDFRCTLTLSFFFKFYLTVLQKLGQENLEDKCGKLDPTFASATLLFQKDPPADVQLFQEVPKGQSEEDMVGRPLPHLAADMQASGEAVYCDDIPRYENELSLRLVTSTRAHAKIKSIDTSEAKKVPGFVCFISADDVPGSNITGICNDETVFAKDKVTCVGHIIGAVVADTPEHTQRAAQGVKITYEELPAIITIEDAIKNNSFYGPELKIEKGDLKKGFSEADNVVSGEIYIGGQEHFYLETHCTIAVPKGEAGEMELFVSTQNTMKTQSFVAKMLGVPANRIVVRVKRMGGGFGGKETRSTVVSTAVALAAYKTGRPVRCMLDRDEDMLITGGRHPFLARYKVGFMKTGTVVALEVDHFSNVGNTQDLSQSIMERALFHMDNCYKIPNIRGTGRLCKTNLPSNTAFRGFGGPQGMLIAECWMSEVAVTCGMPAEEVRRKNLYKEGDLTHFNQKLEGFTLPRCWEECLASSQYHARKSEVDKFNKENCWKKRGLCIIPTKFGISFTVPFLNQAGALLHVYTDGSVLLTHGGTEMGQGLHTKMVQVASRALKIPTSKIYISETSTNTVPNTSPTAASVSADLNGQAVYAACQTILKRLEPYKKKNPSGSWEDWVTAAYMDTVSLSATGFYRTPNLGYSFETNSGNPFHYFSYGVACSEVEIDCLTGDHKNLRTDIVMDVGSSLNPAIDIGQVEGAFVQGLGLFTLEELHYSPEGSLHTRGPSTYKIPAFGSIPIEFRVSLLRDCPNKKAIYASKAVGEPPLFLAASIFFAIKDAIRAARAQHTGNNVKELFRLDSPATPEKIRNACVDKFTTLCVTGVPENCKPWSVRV
# T1 sequence (P00441 whole entry): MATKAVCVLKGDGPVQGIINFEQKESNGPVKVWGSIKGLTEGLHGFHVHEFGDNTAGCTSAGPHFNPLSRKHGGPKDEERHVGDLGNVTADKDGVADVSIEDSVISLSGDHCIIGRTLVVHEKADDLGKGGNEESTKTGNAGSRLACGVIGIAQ
# T2 sequence (P22303 32-614, species assumed): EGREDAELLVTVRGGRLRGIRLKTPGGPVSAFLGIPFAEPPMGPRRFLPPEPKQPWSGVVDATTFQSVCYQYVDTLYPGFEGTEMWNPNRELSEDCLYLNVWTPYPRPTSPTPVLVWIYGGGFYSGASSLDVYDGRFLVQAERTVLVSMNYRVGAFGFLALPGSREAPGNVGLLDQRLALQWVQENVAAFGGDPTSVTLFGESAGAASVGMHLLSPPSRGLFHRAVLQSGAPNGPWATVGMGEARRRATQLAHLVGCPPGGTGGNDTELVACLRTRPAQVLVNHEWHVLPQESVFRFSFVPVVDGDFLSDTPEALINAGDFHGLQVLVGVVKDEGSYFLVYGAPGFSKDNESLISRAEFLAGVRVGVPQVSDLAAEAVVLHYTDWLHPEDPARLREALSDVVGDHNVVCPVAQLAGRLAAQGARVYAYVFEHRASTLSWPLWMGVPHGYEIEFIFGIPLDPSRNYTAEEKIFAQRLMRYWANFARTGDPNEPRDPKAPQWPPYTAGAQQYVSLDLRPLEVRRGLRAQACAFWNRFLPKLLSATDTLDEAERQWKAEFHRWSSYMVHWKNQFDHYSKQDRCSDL
Structure (SMILES),Anti SOD % [1] [%],Anti ACHE % [2] [%],IC50 [3] [µM],Anti α-Amylase % [3] [%],"IC50 [4, 14] [µM]",IC50 [5] [µM],"IC50 ([6]; Homo sapiens, MCF7, 72 h) [µM]",IC50 [7] [µM],IC50 [8] [µM],IC50 [9] [µM],IC50 [10] [µM],IC50 [11] [µM],IC50 [12] [µM],IC50 ([7]; read-out: Anti ACHE IC50) [µM],ABTS Assay % [10] [%],Anti XOD % [13] [%],"IC50 [4, 15] [µM]",IC50 ([6]; 72 h) [µM]
"CC1OC(OCC2OC(Oc3c(-c4ccc(OCCO)c(OCCO)c4)oc4cc(OCCO)cc(O)c4c3=O)C(O)C(O)C2O)C(O)C(O)C1O (centres unmarked) [Molecule M6, trihydroxyethylrutin]",53.7 ± 2.1,33.7 ± 3.7,> 100,49.4 ± 5.1,> 50,> 100,> 50,> 100,> 100,> 50,24.5 ± 0.1,> 50,> 50,–,–,–,–,–
"O=c1cc(-c2cccc(O)c2)oc2c1ccc1ccccc12 [Molecule M10, 3′-hydroxy-a-naphthoflavone]",39.4 ± 1.9,54.7 ± 1.9,2.3 ± 0.1,69.4 ± 1.6,> 50,> 50,> 50,–,> 100,> 100,> 100,> 50,> 50,> 50,11.0 ± 1.0,58.8 ± 0.3,–,–
"COc1cccc(-c2cc(=O)c3c(O)cccc3o2)c1 [Molecule M11, 5-hydroxy-3′-methoxyflavone]",9.4 ± 3.1,52.6 ± 4.2,8.3 ± 0.2,124.8 ± 15.3,> 100,> 100,> 100,–,> 100,> 100,> 100,> 50,> 50,> 50,17.7 ± 0.7,–,> 50,–
"COc1cc(O)c2c(=O)cc(-c3ccc(O)cc3)oc2c1 [Molecule M12, 4′,5-dihydroxy-7-methoxyflavone]",42.1 ± 5.3,51.0 ± 0.3,9 ± 0.1,111.7 ± 0.8,44.7 ± 1.2,1.2 ± 0.1,> 50,> 50,> 100,> 100,> 100,38.5 ± 1.2,47 ± 1.4,–,30.3 ± 0.6,58.2 ± 3.1,–,–
"O=c1cc(-c2cccc(O)c2)oc2cccc(O)c12 [Molecule M14, 5,3′-dihydroxyflavone]",5.7 ± 2.5,55.0 ± 1.9,6.7 ± 0.9,109.6 ± 1.7,> 100,2 ± 0.1,> 100,–,> 100,> 100,> 100,–,> 50,> 50,16.9 ± 0.3,71.3 ± 4.7,> 50,> 50
"Cc1cccc(COc2cc(O)c3c(=O)cc(-c4ccccc4)oc3c2)c1 [Molecule M15, 5-hydroxy-7-((3-methylbenzyl)oxy)-2-phenyl-4h-chromen-4-one]",26.5 ± 3.3,55.3 ± 2.7,> 100,46.2 ± 4.4,> 50,> 100,> 50,–,> 100,> 100,> 100,> 50,45.6 ± 1.4,> 50,25.6 ± 0.7,–,–,–
"Cc1ccc2oc(-c3cccc(O)c3)cc(=O)c2c1 [Molecule M16, 3′-hydroxy-6-methylflavone]",27.3 ± 3.2,59.1 ± 1.5,> 100,–,42.1 ± 1.5,2 ± 0.1,> 100,–,> 100,> 100,> 50,> 100,> 50,> 50,–,83.5 ± 3.8,–,–
"Cc1ccc(-c2cc(=O)c3cc(O)ccc3o2)cc1 [Molecule M17, 6-hydroxy-4′-methylflavone]",80.9 ± 0.2,50.8 ± 4.1,> 100,–,43.8 ± 0.9,0.8 ± 0.1,> 50,–,> 100,> 50,> 50,40.4 ± 1.2,> 50,> 50,–,67.7 ± 2.1,–,–
"O=C1O[C@H]([C@@H](O)CO)C(O)=C1O [Vitamin C, Ascorbic acid, reference compound]",–,–,–,–,–,–,–,–,2.3 ± 0.2,–,2.2 ± 0.2,–,–,–,–,–,–,–
